# US20150031765A1, “TREATMENT OF COGNITIVE IMPAIRMENT” (priority 2011, published 2015)
# Where a name gives a salt, the structure may show the parent alone.
# Experiments:
# [1] = test system: scopolamine induced learning and memory deficit; assay: Morris water maze test, scopolamine induced learning and memory deficit in rats; format: in vivo, Sprague-Dawley male rats; details: for average time to locate the submerged platform: Day 1 of acquisition trials, whole group
# Experimental: The Morris water maze test is a classical cognitive test for evaluation of spatial learning and memory in rodents. […] 60 Sprague-Dawley male rats were used in the present study. The animals were housed in cages in groups of four rats per cage. All rats were fed with food and water ad libitum. The testing apparatus can be described as follows. A circular pool was filled with water (24±1° C.) to the depth of 30 cm. […] Four start positions were at the perimeter of the pool: the first one in the first quadrant, the second one in the second quadrant, the third one in the third quadrant and the last one in the fourth quadrant. The rats were trained to escape from water by swimming to a hidden platform whose location was only identified using visual cues attached to the curtain around the pool. Visual cues had different colors and dimensions and were kept constant during the whole experiment. All rats were trained in the swimming pool for 60 seconds without the platform. […] The training procedure included 4 trials per day with 4 different and randomized starting positions. In each trial, the time of rat to reach the platform (escape latency) was recorded, and then the rat was allowed to stay on the platform for 15 seconds. […] The experimental group setting is described in Table 3. […] For practical reasons, the study was divided into two sessions (Table 4). Each session included 6 groups, and each group included 5 rats. Each session took 10 days to complete. […] On day 6, each rat was placed in the swimming pool with no platform to locate the platform site for 60 seconds. […] Any Maze software was used for video tracking and data collection during the whole acquisition trial and probe trial. In acquisition trial, escape latency was recorded. In probe trial, time spent in target and swimming speed was recorded. Data were analyzed and graphed by Graph Pad Prism 5.
# [2] = test system: memory dysfunction of scopolamine-treated rats; details: Morris water maze test; cited from earlier work
# [3] = Day 1, session 1, 250 mg/kg po + scopolamine 0.5 mg/kg ip
# [4] = Day 1, session 2, 250 mg/kg po + scopolamine 0.5 mg/kg ip
# [5] = Day 2, session 1, 250 mg/kg po + scopolamine 0.5 mg/kg ip
# [6] = Day 2, session 2, 250 mg/kg po + scopolamine 0.5 mg/kg ip
# [7] = Day 3, session 1, 250 mg/kg po + scopolamine 0.5 mg/kg ip
# [8] = Day 3, session 2, 250 mg/kg po + scopolamine 0.5 mg/kg ip
# [9] = Day 4, session 1, 250 mg/kg po + scopolamine 0.5 mg/kg ip
# [10] = Day 4, session 2, 250 mg/kg po + scopolamine 0.5 mg/kg ip
# [11] = Day 5, session 1, 250 mg/kg po + scopolamine 0.5 mg/kg ip
# [12] = Day 5, session 2, 250 mg/kg po + scopolamine 0.5 mg/kg ip
# [13] = Day 6, session 1, 250 mg/kg po + scopolamine 0.5 mg/kg ip on days 1-5
# [14] = Day 6, session 2, 250 mg/kg po + scopolamine 0.5 mg/kg ip on days 1-5, in s
smiles,measurement,setting,value
"COc1cc2c(cc1OC)C(=O)C(CC1CCN(Cc3ccccc3)CC1)C2 (stereo not drawn) [Donepezil, Donepezil hydrochloride]","effect on learning and memory deficit induced by scopolamine, probe trials (in words)","[1]; 0.1 mg/kg, vs scopolamine only group",significantly attenuated
same,Latency to escape in acquisition trial,"[1]; Day 1, session 1, 0.1 mg/kg ip + scopolamine 0.5 mg/kg ip",48.52 ± 5.50 s
same,Latency to escape in acquisition trial,"[1]; Day 1, session 2, 0.1 mg/kg ip + scopolamine 0.5 mg/kg ip",45.44 ± 5.40 s
same,average time to locate the submerged platform,[1]; 0.1 mg/kg ip + scopolamine,46.98 ± 3.67 s
same,Latency to escape in acquisition trial,"[1]; Day 2, session 1, 0.1 mg/kg ip + scopolamine 0.5 mg/kg ip",44.50 ± 2.48 s
same,Latency to escape in acquisition trial,"[1]; Day 2, session 2, 0.1 mg/kg ip + scopolamine 0.5 mg/kg ip",43.18 ± 7.85 s
same,Latency to escape in acquisition trial,"[1]; Day 3, session 1, 0.1 mg/kg ip + scopolamine 0.5 mg/kg ip",35.92 ± 8.22 s
same,Latency to escape in acquisition trial,"[1]; Day 3, session 2, 0.1 mg/kg ip + scopolamine 0.5 mg/kg ip",37.06 ± 4.26 s
same,Latency to escape in acquisition trial,"[1]; Day 4, session 1, 0.1 mg/kg ip + scopolamine 0.5 mg/kg ip",36.04 ± 4.78 s
same,Latency to escape in acquisition trial,"[1]; Day 4, session 2, 0.1 mg/kg ip + scopolamine 0.5 mg/kg ip",34.20 ± 6.89 s
same,Latency to escape in acquisition trial,"[1]; Day 5, session 1, 0.1 mg/kg ip + scopolamine 0.5 mg/kg ip",26.86 ± 3.09 s
same,Latency to escape in acquisition trial,"[1]; Day 5, session 2, 0.1 mg/kg ip + scopolamine 0.5 mg/kg ip",30.50 ± 5.78 s
same,Time spent in target quadrant in probe trial,"[1]; Day 6, session 1, 0.1 mg/kg ip + scopolamine 0.5 mg/kg ip on days 1-5",18.84 ± 3.22 s
same,Time spent in target quadrant in probe trial,"[1]; Day 6, session 2, 0.1 mg/kg ip + scopolamine 0.5 mg/kg ip on days 1-5, in s",19.40 ± 1.09
"C[C@@]12CC[C@@H]3[C@@](CC[C@H]4[C@@]3(C)CCC[C@@]4(C)C(=O)O)(CC1=O)C2 (single isomer, unassigned; ent-16) [Isosteviol, ent-16-ketobeyeran-19-oic acid]","effect on learning and memory deficit induced by scopolamine, probe trials (in words)",[1]; 80 mg/kg,significantly attenuated
same,"effect on learning and memory deficit induced by scopolamine, probe trials (in words)",[1]; 250 mg/kg,not
same,Latency to escape in acquisition trial,"[1]; Day 1, session 1, 80 mg/kg po + scopolamine 0.5 mg/kg ip",46.46 ± 4.50 s
same,Latency to escape in acquisition trial,[1]; [3],46.16 ± 2.48 s
same,Latency to escape in acquisition trial,"[1]; Day 1, session 2, 80 mg/kg po + scopolamine 0.5 mg/kg ip",45.20 ± 6.40 s
same,Latency to escape in acquisition trial,[1]; [4],48.46 ± 4.49 s
same,average time to locate the submerged platform,[1]; 80 mg/kg po + scopolamine,45.83 ± 3.70 s
same,average time to locate the submerged platform,[1]; 250 mg/kg po + scopolamine,47.31 ± 2.45 s
same,Latency to escape in acquisition trial,"[1]; Day 2, session 1, 80 mg/kg po + scopolamine 0.5 mg/kg ip",45.24 ± 7.87 s
same,Latency to escape in acquisition trial,[1]; [5],43.94 ± 5.18 s
same,Latency to escape in acquisition trial,"[1]; Day 2, session 2, 80 mg/kg po + scopolamine 0.5 mg/kg ip",41.88 ± 3.19 s
same,Latency to escape in acquisition trial,[1]; [6],50.76 ± 3.90 s
same,Latency to escape in acquisition trial,"[1]; Day 3, session 1, 80 mg/kg po + scopolamine 0.5 mg/kg ip",40.42 ± 5.48 s
same,Latency to escape in acquisition trial,[1]; [7],48.62 ± 5.64 s
same,Latency to escape in acquisition trial,"[1]; Day 3, session 2, 80 mg/kg po + scopolamine 0.5 mg/kg ip",36.04 ± 5.50 s
same,Latency to escape in acquisition trial,[1]; [8],40.42 ± 4.57 s
same,Latency to escape in acquisition trial,"[1]; Day 4, session 1, 80 mg/kg po + scopolamine 0.5 mg/kg ip",37.84 ± 4.36 s
same,Latency to escape in acquisition trial,[1]; [9],44.36 ± 6.54 s
same,Latency to escape in acquisition trial,"[1]; Day 4, session 2, 80 mg/kg po + scopolamine 0.5 mg/kg ip",38.74 ± 5.25 s
same,Latency to escape in acquisition trial,[1]; [10],41.58 ± 6.33 s
same,Latency to escape in acquisition trial,"[1]; Day 5, session 1, 80 mg/kg po + scopolamine 0.5 mg/kg ip",27.14 ± 4.30 s
same,Latency to escape in acquisition trial,[1]; [11],41.44 ± 7.24 s
same,Latency to escape in acquisition trial,"[1]; Day 5, session 2, 80 mg/kg po + scopolamine 0.5 mg/kg ip",33.38 ± 6.04 s
same,Latency to escape in acquisition trial,[1]; [12],35.24 ± 7.74 s
same,Time spent in target quadrant in probe trial,"[1]; Day 6, session 1, 80 mg/kg po + scopolamine 0.5 mg/kg ip on days 1-5",19.80 ± 1.19 s
same,Time spent in target quadrant in probe trial,[1]; [13],16.00 ± 2.37 s
same,Time spent in target quadrant in probe trial,"[1]; Day 6, session 2, 80 mg/kg po + scopolamine 0.5 mg/kg ip on days 1-5, in s",17.28 ± 1.11
same,Time spent in target quadrant in probe trial,[1]; [14],16.50 ± 1.61
same,visible behavioral abnormalities,[1]; Morris water maze study,no visible behavioral abnormalities
C=C1C[C@@]23CC[C@H]4[C@@](C)(CCC[C@@]4(C)C(=O)O[C@@H]4O[C@H](CO)[C@@H](O)[C@H](O)[C@H]4O)[C@@H]2CC[C@]1(O[C@@H]1O[C@H](CO)[C@@H](O)[C@H](O)[C@H]1O[C@@H]1O[C@H](CO)[C@@H](O)[C@H](O)[C@H]1O)C3 [Stevioside],"effect on learning and memory deficit induced by scopolamine, probe trials (in words)",[1]; 250 mg/kg,significantly reversed
same,Latency to escape in acquisition trial,[1]; [3],44.98 ± 5.53 s
same,Latency to escape in acquisition trial,[1]; [4],46.48 ± 3.66 s
same,average time to locate the submerged platform,[1]; 250 mg/kg po + scopolamine,45.73 ± 3.14 s
same,Latency to escape in acquisition trial,[1]; [5],45.78 ± 6.95 s
same,Latency to escape in acquisition trial,[1]; [6],40.44 ± 3.63 s
same,Latency to escape in acquisition trial,[1]; [7],44.80 ± 5.46 s
same,Latency to escape in acquisition trial,[1]; [8],39.46 ± 9.62 s
same,Latency to escape in acquisition trial,[1]; [9],41.74 ± 6.39 s
same,Latency to escape in acquisition trial,[1]; [10],35.78 ± 4.95 s
same,Latency to escape in acquisition trial,[1]; [11],30.86 ± 6.57 s
same,Latency to escape in acquisition trial,[1]; [12],31.08 ± 3.33 s
same,Time spent in target quadrant in probe trial,[1]; [13],20.78 ± 3.75 s
same,Time spent in target quadrant in probe trial,[1]; [14],21.10 ± 2.16
same,effect in cognitive deficits of rats (in words),[2],memory-preservative effect
CN1[C@@H]2C[C@@H](OC(=O)[C@H](CO)c3ccccc3)C[C@H]1[C@@H]1O[C@@H]12 [Scopolamine],average time to locate the submerged platform,[1]; scopolamine 0.5 mg/kg ip alone,46.11 ± 2.98 s
same,latency to the submerged platform in acquisition trials (effect in words),"[1]; Day 5, scopolamine 0.5 mg/kg",significantly increased
same,Time spent in target quadrant in probe trial,"[1]; Day 6, session 1, scopolamine 0.5 mg/kg ip alone (0.5% MC po) on days 1-5",15.70 ± 1.42 s
same,Time spent in target quadrant in probe trial,"[1]; Day 6, session 2, scopolamine 0.5 mg/kg ip alone (0.5% MC po) on days 1-5, in s",12.30 ± 1.24
same,time to locate in target quadrant in probe trials (effect in words),[1]; scopolamine 0.5 mg/kg,reduced
